Data set [1] can be described thus: AUC in mouse at 50 mg/kg, po measured for 40 mins by LC-MS/MS analysis. The class given is ADME, organism-based. Conditions: in vivo.
Data set [2] has as its system Mus musculus. The experiment in a line: Dose normalized in AUC mouse at 50 mg/kg by LC-MS/MS analysis. Format: ADME, organism-based. Conditions: in vivo.
Data set [3] concerns the target Dual specificity mitogen-activated protein kinase kinase 1 (Homo sapiens, UniProt Q02750). The experiment in a line: Inhibition of MEK1 (unknown origin) phosphorylation.
Data set [4] can be described thus: AUC in po dosed mouse at 25 mg/kg by LC-MS/MS analysis. Format: ADME, organism-based. Conditions: in vivo.
Data set [5] relates to Mus musculus. In words: Dose normalized in AUC mouse at 25 mg/kg by LC-MS/MS analysis. Format: ADME, organism-based. Conditions: in vivo.
Data set [6] in a line: Binding affinity to [125I] radiolabelled Angiotensin-2 receptor in bovine adrenal cortex membrane. Format: cell membranes, Bos taurus.
Data set [7] in a line: In vivo inhibition of Angiotensin II-induced pressor response in Wistar rat model at 0.3 mg/kg, po and measured for 6 hrs. The class given is functional.

Chain of Dual specificity mitogen-activated protein kinase kinase 1 (Q02750 whole entry): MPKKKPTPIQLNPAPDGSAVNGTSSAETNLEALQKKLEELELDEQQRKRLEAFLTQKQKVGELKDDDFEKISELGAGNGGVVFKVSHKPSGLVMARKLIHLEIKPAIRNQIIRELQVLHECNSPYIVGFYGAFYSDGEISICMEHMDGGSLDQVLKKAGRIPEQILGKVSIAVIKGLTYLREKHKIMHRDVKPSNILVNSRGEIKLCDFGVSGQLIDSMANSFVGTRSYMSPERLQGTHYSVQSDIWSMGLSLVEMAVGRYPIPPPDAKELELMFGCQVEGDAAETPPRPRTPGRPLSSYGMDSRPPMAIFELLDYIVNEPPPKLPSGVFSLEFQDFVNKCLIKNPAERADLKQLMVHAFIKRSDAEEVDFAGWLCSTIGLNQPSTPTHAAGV

In the case of `Nc1nccn2c(C3CCC3)nc(-c3ccc4ccc(-c5ccccc5)nc4c3)c12`, the AUC (in general, the area under the concentration-time curve, a measure of exposure) in data set [1] came to 5170 ng·h/mL. This compound yielded an AUC/dose in data set [2] of 103.4 ng·h/mL/mg/kg. As for `O=C(c1ccc(F)c(F)c1Nc1ccc(I)cc1F)N1CC(O)([C@@H]2CCCCN2)C1` [COBIMETINIB], in data set [3], the IC50 (commonly the concentration at which inhibition is half-maximal) is 0.2 nM. Take `C[C@]1(O)C[C@@H](c2nc(-c3ccc4ccc(-c5ccccc5)nc4c3)c3c(N)nccn32)C1` [LINSITINIB]: the area under the curve (AUC) in data set [4] came to 26700 ng·h/mL. In data set [5], this compound had an AUC/dose of 1069.6 ng·h/mL/mg/kg. `CCCc1nc(C(C)(C)O)c(C(=O)O)n1Cc1ccc(-c2ccccc2-c2nnn[nH]2)cc1` [OLMESARTAN]: the half-inhibitory concentration (IC50) in data set [6] stood at 8.1 nM. In addition, the inhibition in vivo (commonly the change of the read-out against control, counted positive when it falls) at 0.3 mg/kg in data set [7] amounted to 78%. As for `CCCc1nc(CC)c(C(=O)O)n1Cc1ccc(-c2ccccc2-c2nn[nH]n2)cc1`, the IC50 in data set [6] was determined as 12 nM.

As for `CCCc1nc(CO)c(C(=O)O)n1Cc1ccc(-c2ccccc2-c2nn[nH]n2)cc1`, the half-maximal inhibitory concentration (IC50) in data set [6] is 6.9 nM. Besides, the inhibition in vivo at 0.3 mg/kg in data set [7] stood at 65%.

Consider `CCCc1nc(C(C)O)c(C(=O)O)n1Cc1ccc(-c2ccccc2-c2nn[nH]n2)cc1` (centres undefined), for which the IC50 in data set [6] was found to be 4.9 nM. For the same compound, testing at 0.3 mg/kg in data set [7] gave an inhibition in vivo of 69%. Regarding `CCCc1nc(C)c(C(=O)O)n1Cc1ccc(-c2ccccc2-c2nn[nH]n2)cc1`, in data set [6], the IC50 stood at 11 nM. Still for that read-out and setting: then `CCCc1nc(C(C)C)c(C(=O)O)n1Cc1ccc(-c2ccccc2-c2nn[nH]n2)cc1`, with 46 nM.

Values taken from ChEMBL document CHEMBL6109157, “Tertiary Alcohol: Reaping the Benefits but Minimizing the Drawbacks of Hydroxy Groups in Drug Discovery” (J Med Chem, 2025).
